Measured values published in US20110190285A1 (priority 2008, published 2011).

target: botulinum (serotype-A) (Clostridium botulinum, UniProt P0DPI1); assay: cell-based; details: read-out: Cell Biology (% inhibition at 30 uM)
Sequence (P0DPI1 2-1296 limits assumed): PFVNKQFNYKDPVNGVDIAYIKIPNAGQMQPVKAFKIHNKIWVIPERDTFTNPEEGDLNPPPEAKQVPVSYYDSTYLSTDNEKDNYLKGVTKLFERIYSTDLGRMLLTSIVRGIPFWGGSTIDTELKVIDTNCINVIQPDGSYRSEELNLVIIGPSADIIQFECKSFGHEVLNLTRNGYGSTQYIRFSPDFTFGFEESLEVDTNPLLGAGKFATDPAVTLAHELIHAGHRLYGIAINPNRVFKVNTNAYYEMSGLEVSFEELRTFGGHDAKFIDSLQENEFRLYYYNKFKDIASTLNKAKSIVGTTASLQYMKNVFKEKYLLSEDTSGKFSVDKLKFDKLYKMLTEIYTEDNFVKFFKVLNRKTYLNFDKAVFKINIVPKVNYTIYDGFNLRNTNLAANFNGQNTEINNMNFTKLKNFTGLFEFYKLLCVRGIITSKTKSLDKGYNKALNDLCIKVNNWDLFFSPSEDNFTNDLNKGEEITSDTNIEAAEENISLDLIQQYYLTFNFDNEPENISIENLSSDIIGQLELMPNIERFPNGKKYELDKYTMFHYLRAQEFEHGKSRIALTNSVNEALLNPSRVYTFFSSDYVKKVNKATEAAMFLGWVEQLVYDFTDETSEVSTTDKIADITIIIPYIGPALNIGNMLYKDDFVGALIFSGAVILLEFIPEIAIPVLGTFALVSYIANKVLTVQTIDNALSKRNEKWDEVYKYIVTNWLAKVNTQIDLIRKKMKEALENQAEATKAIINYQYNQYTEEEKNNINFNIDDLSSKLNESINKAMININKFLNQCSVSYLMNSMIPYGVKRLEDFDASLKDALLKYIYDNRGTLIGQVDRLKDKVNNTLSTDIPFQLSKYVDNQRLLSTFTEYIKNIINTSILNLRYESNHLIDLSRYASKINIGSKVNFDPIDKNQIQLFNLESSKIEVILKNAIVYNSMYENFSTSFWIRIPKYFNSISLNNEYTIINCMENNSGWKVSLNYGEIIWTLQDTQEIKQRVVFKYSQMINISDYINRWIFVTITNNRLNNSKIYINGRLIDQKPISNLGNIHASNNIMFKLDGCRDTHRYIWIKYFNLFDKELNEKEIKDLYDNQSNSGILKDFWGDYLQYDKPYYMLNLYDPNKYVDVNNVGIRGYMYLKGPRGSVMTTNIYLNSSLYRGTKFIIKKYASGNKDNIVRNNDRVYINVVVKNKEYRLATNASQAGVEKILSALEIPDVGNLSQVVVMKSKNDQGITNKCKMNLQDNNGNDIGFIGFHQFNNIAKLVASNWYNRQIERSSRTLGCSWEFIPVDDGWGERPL

Row | Structure (SMILES) | inhibition at 30 µM [%]
1 | Cc1ccc(NC(=O)CS)cc1C#N | 77
2 | CCOC(=O)Cc1csc(NC(=O)CS)n1 | 86
3 | O=C(CS)Nc1cc(-c2ccc(F)cc2)n[nH]1 | 73 to 78
4 | O=C(CS)Nc1cc(-c2ccc(Cl)cc2)n[nH]1 | 57 to 100
5 | O=C(CS)Nc1ccc2c(c1)Cc1cc(Br)ccc1-2 | 90

same assay, conditions: read-out: Cell Biology IC50

Row | Structure (SMILES) | IC50 [µM]
6 | CC(NC(=O)CS)c1ccc(Cl)cc1Cl (stereo not drawn) [drawing 69] | 18
7 | O=C(CS)Nc1cc(-c2ccc(Cl)cc2)n[nH]1 | 10 to 19

target: botulinum toxin recombinant light chain (Clostridium botulinum, UniProt P0DPI0); assay: biochemical; details: not given
Sequence (P0DPI0 2-448 limits assumed): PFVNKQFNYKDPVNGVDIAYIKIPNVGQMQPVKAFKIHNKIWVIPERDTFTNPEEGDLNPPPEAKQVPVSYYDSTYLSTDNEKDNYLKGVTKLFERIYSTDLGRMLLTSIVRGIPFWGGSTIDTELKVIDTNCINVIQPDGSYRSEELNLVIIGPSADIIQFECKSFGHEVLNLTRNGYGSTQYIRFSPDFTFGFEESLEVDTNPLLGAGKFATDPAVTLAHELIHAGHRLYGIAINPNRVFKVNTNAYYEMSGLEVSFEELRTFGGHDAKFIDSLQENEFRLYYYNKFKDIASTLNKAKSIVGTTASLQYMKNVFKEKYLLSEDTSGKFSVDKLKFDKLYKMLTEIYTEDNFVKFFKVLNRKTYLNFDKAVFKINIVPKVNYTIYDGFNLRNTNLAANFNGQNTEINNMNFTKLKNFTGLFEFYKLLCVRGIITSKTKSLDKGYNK

Row | Structure (SMILES) | IC50 [µM]
8 | CC(NC(=O)CS)c1ccc(Cl)cc1Cl (stereo not drawn) [drawing 65] | 5 to 27
9 | C[C@@H](NC(=O)CS)c1ccc2ccccc2c1 | 8 to 21
